Experimental data published in ChEMBL document CHEMBL5223144, “Second generation Spautin-1 analogues targeting EGFR-mutant non-small cell lung cancer cells” (Bioorg Med Chem Lett, 2023).
Active and inactive are the calls of the source. No cut-off for these calls is given here.

Key:
PC-9 [1] = assay: Cytotoxicity against human PC-9 cells harboring EGFR mutant assessed as inhibition of cell growth; assay type: functional, cell-based
PC-9 [2] = assay: Additive cytotoxicity against human PC-9 cells assessed as reduction in cell viability at 34 nM incubated in presence of afatinib; assay type: functional, cell-based
BEAS-2B [3] = assay: Cytotoxicity against human BEAS-2B cells assessed as reduction in cell viability at 34 nM; assay type: toxicity, cell-based; conditions: 0.034 µM
BEAS-2B [4] = assay: Cytotoxicity against human BEAS-2B cells assessed as reduction in cell viability at 34 nM incubated in presence of afatinib; assay type: toxicity, cell-based; conditions: 0.034 µM
[5] = target: Epidermal growth factor receptor (Homo sapiens) (UniProt P00533); assay: Inhibition of EGFR (unknown origin) assessed as residual activity relative to control
Chain of Epidermal growth factor receptor (Homo sapiens) (P00533 whole entry): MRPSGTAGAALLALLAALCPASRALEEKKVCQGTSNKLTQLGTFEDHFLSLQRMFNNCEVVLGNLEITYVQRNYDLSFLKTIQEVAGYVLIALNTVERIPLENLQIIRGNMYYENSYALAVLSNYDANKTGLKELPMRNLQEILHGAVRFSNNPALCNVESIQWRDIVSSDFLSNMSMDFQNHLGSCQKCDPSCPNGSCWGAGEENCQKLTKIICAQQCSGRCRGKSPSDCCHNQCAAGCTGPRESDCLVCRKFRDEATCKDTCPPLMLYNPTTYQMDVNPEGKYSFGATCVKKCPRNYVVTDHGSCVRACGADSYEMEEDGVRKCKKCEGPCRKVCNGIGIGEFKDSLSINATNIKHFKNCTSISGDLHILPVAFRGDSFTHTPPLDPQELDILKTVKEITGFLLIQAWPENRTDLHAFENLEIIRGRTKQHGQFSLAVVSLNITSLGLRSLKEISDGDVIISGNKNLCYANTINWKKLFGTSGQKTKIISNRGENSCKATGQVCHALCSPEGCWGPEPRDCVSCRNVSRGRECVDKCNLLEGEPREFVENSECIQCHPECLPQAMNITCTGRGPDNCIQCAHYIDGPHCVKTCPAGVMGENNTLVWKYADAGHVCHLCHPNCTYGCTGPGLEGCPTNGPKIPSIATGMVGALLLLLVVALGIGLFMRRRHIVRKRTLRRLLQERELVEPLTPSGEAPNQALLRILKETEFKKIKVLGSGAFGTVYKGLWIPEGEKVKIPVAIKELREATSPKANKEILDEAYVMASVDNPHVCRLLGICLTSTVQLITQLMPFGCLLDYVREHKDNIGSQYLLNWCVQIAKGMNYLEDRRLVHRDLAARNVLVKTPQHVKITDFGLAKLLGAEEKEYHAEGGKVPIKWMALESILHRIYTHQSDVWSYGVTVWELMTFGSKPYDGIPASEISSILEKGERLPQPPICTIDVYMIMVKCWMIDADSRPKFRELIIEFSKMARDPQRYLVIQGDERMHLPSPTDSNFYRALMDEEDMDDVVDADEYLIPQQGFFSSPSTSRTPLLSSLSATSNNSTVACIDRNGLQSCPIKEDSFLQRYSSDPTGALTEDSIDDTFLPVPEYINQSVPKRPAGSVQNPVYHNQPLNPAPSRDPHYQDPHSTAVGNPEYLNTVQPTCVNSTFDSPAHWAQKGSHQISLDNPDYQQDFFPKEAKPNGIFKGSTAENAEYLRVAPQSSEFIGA

[6] = target: Tyrosine-protein kinase Fer (Homo sapiens) (UniProt P16591); assay: Inhibition of FER (unknown origin) at 50 nM
Chain of Tyrosine-protein kinase Fer (Homo sapiens) (P16591 whole entry, looked up): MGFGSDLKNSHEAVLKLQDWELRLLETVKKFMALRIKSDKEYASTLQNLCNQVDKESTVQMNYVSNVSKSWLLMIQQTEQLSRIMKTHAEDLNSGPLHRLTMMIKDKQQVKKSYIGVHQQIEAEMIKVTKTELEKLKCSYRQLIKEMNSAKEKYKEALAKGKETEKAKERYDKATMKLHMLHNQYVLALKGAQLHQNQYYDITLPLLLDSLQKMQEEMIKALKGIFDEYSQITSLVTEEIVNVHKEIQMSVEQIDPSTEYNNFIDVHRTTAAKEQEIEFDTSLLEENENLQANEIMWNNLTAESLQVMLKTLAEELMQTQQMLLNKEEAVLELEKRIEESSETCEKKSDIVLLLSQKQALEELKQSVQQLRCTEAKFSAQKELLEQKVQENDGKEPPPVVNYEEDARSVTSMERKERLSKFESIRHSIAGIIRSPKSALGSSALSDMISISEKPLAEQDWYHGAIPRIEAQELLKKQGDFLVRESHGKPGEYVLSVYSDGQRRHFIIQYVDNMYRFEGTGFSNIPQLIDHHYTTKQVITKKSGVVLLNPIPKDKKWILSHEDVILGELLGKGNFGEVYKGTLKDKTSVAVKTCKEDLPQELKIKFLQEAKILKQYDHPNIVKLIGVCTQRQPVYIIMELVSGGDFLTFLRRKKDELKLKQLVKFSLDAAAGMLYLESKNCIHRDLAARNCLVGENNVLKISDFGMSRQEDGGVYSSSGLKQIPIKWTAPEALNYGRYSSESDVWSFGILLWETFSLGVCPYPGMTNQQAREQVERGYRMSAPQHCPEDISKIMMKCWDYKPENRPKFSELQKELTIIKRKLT

[7] = target: ALK tyrosine kinase receptor (Homo sapiens) (UniProt Q9UM73); assay: Inhibition of ALK (unknown origin) at 50 nM
Chain of ALK tyrosine kinase receptor (Homo sapiens) (Q9UM73 19-1620 limits assumed): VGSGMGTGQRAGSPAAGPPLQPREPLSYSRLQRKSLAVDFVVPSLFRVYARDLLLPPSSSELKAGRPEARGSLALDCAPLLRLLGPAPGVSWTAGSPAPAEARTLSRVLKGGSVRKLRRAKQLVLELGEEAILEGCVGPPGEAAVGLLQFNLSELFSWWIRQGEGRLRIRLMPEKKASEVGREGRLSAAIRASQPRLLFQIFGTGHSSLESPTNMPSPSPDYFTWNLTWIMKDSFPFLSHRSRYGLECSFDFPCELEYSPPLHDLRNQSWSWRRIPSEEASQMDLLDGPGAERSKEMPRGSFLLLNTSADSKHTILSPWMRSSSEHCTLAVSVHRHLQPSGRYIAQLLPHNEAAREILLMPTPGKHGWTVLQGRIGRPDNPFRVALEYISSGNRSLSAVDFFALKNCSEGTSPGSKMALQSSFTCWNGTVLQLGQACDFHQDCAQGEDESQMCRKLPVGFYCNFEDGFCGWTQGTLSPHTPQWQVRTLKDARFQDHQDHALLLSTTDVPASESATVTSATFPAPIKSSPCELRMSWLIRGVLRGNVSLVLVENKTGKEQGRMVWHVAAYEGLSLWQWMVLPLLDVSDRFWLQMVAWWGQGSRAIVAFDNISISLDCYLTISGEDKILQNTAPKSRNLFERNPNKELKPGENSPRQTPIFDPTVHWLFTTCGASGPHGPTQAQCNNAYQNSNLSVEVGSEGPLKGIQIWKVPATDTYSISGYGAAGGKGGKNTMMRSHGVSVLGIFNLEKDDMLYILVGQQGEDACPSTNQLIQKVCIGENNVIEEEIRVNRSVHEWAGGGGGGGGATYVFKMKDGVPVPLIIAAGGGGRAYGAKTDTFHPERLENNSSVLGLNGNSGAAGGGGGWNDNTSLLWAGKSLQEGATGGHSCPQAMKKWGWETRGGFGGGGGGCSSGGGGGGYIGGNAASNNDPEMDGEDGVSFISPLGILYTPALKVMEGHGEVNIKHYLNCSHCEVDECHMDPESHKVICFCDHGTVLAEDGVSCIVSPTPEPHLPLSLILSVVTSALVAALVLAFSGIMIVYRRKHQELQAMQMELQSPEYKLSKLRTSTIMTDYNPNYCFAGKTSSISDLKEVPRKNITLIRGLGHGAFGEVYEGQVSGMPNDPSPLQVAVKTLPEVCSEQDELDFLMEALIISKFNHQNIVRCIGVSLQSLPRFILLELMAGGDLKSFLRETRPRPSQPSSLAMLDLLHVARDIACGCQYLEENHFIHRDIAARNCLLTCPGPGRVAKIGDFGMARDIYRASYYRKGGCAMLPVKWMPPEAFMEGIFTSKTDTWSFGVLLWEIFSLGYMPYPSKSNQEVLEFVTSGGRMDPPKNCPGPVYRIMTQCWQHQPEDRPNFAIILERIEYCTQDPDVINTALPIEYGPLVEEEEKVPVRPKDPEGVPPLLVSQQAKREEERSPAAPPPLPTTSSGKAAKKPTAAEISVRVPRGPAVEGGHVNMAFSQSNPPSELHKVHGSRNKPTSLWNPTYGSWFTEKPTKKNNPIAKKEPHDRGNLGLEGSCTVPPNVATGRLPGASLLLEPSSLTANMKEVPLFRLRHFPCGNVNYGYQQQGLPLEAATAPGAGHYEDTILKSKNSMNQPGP

[8] = target: Serine/threonine-protein kinase pim-1 (Homo sapiens) (UniProt P11309); assay: Inhibition of Moloney murine leukemia virus Proviral integration site 1 at 50 nM
PC-9 [9] = assay: Cytotoxicity against human PC-9 cells harboring EGFR mutant assessed as inhibition of cell growth incubated for 72 hrs by ATP-based luminescence CellTiter-Glo assay; assay type: functional; conditions: PC-9, 72 h
PC-9 [10] = assay: Additive cytotoxicity against human PC-9 cells assessed as reduction in cell viability at 4 nM incubated in presence of afatinib; assay type: functional, cell-based
BEAS-2B [11] = assay: Cytotoxicity against human BEAS-2B cells assessed as reduction in cell viability at 4 nM; assay type: toxicity, cell-based; conditions: 0.004 µM
BEAS-2B [12] = assay: Cytotoxicity against human BEAS-2B cells assessed as reduction in cell viability at 4 nM incubated in presence of afatinib; assay type: toxicity, cell-based; conditions: 0.004 µM
[13] = target: Tyrosine-protein kinase Fer (Homo sapiens) (UniProt P16591); assay: Inhibition of FER (unknown origin) at 10 nM
[14] = target: ALK tyrosine kinase receptor (Homo sapiens) (UniProt Q9UM73); assay: Inhibition of ALK (unknown origin) at 10 nM
[15] = target: Serine/threonine-protein kinase pim-1 (Homo sapiens) (UniProt P11309); assay: Inhibition of Moloney murine leukemia virus Proviral integration site 1 at 10 nM

SMILES	IC50 (PC-9 [1])	further results
Fc1ccc2ncnc(NCCc3ccc(-c4ccccc4F)cc3)c2c1	66 nM	
Cc1ccc(-c2ccc(CCNc3ncnc4ccc(F)cc34)cc2)cc1	49 nM	
Fc1ccc2ncnc(NCCc3cccc(Br)c3)c2c1	685 nM	
Fc1ccc2ncnc(NCCc3ccccc3-c3ccccc3)c2c1	> 5000 nM	
Fc1ccc2ncnc(NCCc3ccc(-c4ccc(Oc5ccccc5)cc4)cc3)c2c1	280 nM	
Fc1ccc2ncnc(Nc3ccc4cc(Br)ccc4c3)c2c1	> 5000 nM	
COc1ccccc1-c1ccc(CCNc2ncnc3ccc(F)cc23)cc1	105 nM	
Fc1ccc2ncnc(NCCc3ccc4ccccc4c3)c2c1	64 nM	
Fc1ccc2ncnc(NCCc3ccc(-c4cccnc4)cc3)c2c1	1040 nM	
Fc1ccc2ncnc(NCCc3ccc(I)cc3)c2c1	261 nM	
Fc1ccc2ncnc(NCCc3ccc(-c4ccncc4)cc3)c2c1	408 nM	
CC(C)(C)c1ccc(CCNc2ncnc3ccc(F)cc23)cc1	45 nM	
Fc1ccc2ncnc(NCCc3ccc(-c4ccc(C(F)(F)F)cc4)cc3)c2c1	131 nM	
COc1ccc(-c2ccc(CCNc3ncnc4ccc(F)cc34)cc2)cc1	69 nM	
Fc1ccc2ncnc(NCCc3ccc(-c4ccc(F)c(F)c4)cc3)c2c1	138 nM	
Fc1ccc2ncnc(NCCc3ccc(Oc4ccccc4)cc3)c2c1	14 nM	
Fc1ccc2ncnc(NCCc3ccc(-c4ccc(Cl)cc4)cc3)c2c1	44 nM	
Fc1ccc2ncnc(NCCc3ccc(-c4ccoc4)cc3)c2c1	288 nM	
COc1ccc(Oc2ccc(CCNc3ncnc4ccc(F)cc34)cc2)cc1	7 nM	
Fc1ccc2ncnc(NCCc3ccc(-c4cccc5ccccc45)cc3)c2c1	291 nM	

SMILES	IC50 (PC-9 [1])	further results
Fc1ccc2ncnc(NC3CCc4cc(Br)ccc4C3)c2c1 (centres undefined)	718 nM	
CC(C)(C)c1ccc(-c2ccc(CCNc3ncnc4ccc(F)cc34)cc2)cc1	363 nM	
Fc1cccc(-c2ccc(CCNc3ncnc4ccc(F)cc34)cc2)c1	618 nM	
Fc1ccc2ncnc(NCCc3ccc(-c4ccc5c(c4)OCCO5)cc3)c2c1	69 nM	
Fc1ccc2ncnc(NCCc3ccc(-c4ccccc4)cc3)c2c1	77 nM	
Fc1ccc2ncnc(NCCc3ccc(OCc4ccccc4)cc3)c2c1	30 nM	
Fc1ccc2ncnc(NCCc3cccc(-c4ccccc4)c3)c2c1	668 nM	
Fc1ccc(-c2ccc(CCNc3ncnc4ccc(F)cc34)cc2)cc1	160 nM	
Fc1ccc(-c2ccc(CCNc3ncnc4ccc(F)cc34)cc2)c(F)c1	34 nM	Activity (PC-9 [2]): Active; Activity (BEAS-2B [3]): Non-Toxic; Activity (BEAS-2B [4]): Non-Toxic; Activity [5]: > 90%; inhibition [6]: Active; inhibition [7]: Active; inhibition [8]: Active
Fc1ccc(CNc2ncnc3ccc(F)cc23)cc1		IC50 (PC-9 [9]): > 5000 nM
CC(C)(C)Oc1ccc(-c2ccc(CCNc3ncnc4ccc(F)cc34)cc2)cc1	1700 nM	
Fc1ccc(Oc2ccc(CCNc3ncnc4ccc(F)cc34)cc2)cc1	4 nM	Activity (PC-9 [10]): Active; Activity (BEAS-2B [11]): Non-Toxic; Activity (BEAS-2B [12]): Non-Toxic; Activity [5]: > 90%; inhibition [13]: Active; inhibition [14]: Active; inhibition [15]: Active
Fc1ccc2ncnc(NCCc3ccc(-c4ccc5oc6ccccc6c5c4)cc3)c2c1	79 nM	
Fc1ccc2ncnc(NCCc3ccc(-c4ccco4)cc3)c2c1	636 nM	
Fc1ccc2ncnc(NCCc3ccc(-c4cccc(F)c4F)cc3)c2c1	76 nM	
Fc1ccc2ncnc(NCCc3ccc(-c4ccc5ccccc5c4)cc3)c2c1	101 nM	
Fc1ccc2ncnc(NCCc3ccccc3Br)c2c1	892 nM	
CN(C)C/C=C/C(=O)Nc1cc2c(Nc3ccc(F)c(Cl)c3)ncnc2cc1O[C@H]1CCOC1 [AFATINIB]	5 nM	
COc1cccc(-c2ccc(CCNc3ncnc4ccc(F)cc34)cc2)c1	67 nM	
Fc1ccc2ncnc(NCCc3ccc(Br)cc3)c2c1		IC50 (PC-9 [9]): 207 nM
